Measured values: US8629157B2, “Pyrrolidine compounds which modulate the CB2 receptor” (Boehringer Ingelheim International GmbH, priority 2009, dated 2014)
Where two headings read alike, the source gives them in different places.

Biological target: human CB2R (Homo sapiens, UniProt P34972)
Assay: CB2R mediated modulation of cAMP synthesis
Format: cell-based
Summary of the method: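 cAMP measured with the DiscoverX-XS kit after 30 min, 37° C. compound exposure of human CB2R-expressing CHO cells stimulated by 10 uM forskolin (1 mM IBMX, 0.25% BSA).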

[1] = CHO cells expressing human CB2R, inhibition of forskolin-stimulated cAMP synthesis, mean, read-out: CB2 CAMP @ EC50 nM (mean)

Sequence of human CB2R (P34972 whole entry): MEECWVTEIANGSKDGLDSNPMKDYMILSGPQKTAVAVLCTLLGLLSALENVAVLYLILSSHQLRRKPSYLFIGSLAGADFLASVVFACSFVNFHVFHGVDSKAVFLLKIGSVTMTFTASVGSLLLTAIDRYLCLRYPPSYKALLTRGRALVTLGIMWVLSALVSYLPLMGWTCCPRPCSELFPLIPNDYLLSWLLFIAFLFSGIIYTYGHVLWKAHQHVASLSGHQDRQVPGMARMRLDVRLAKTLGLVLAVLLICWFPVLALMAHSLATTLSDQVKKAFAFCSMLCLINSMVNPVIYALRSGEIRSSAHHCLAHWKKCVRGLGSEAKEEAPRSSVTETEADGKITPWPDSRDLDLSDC

Compound	EC50	EC50 [1]
CC(C)(C)c1cc(NC(=O)[C@@H]2CCC(=O)N2c2ncc(Cl)cn2)on1 [(S)-1-(5-Chloro-pyrimidin-2-yl)-5-oxo-pyrrolidine-2-carboxylic acid (3-tert-butyl-isoxazol-5-yl)-amide]	455 nM	–
CC(C)(C)c1cc(NC(=O)[C@@H]2CCC(=O)N2c2ccc(Cl)s2)on1 [(S)-1-(5-Chloro-thiophen-2-yl)-5-oxo-pyrrolidine-2-carboxylic acid (3-tert-butyl-isoxazol-5-yl)-amide]	67.5 nM	–
Cc1nc(N2C(=O)CC[C@H]2C(=O)Nc2cc(C(C)(C)C)no2)ccc1F [(S)-1-(5-Fluoro-6-methyl-pyridin-2-yl)-5-oxo-pyrrolidine-2-carboxylic acid (3-tert-butyl-isoxazol-5-yl)-amide]	74.4 nM	–
CC(C)(C)c1cc(NC(=O)[C@@H]2CCC(=O)N2c2ccc(F)cn2)on1 [(S)-1-(5-Fluoro-pyridin-2-yl)-5-oxo-pyrrolidine-2-carboxylic acid (3-tert-butyl-isoxazol-5-yl)-amide]	8.15 nM	–
COc1ccc(N2C(=O)CC[C@H]2C(=O)Nc2cc(C(C)(C)C)no2)nc1 [(S)-1-(5-Methoxy-pyridin-2-yl)-5-oxo-pyrrolidine-2-carboxylic acid (3-tert-butyl-isoxazol-5-yl)-amide]	22.1 nM	–
Cc1ccc(N2C(=O)CC[C@H]2C(=O)Nc2cc(C(C)(C)C)no2)nc1 [(S)-1-(5-Methyl-pyridin-2-yl)-5-oxo-pyrrolidine-2-carboxylic acid (3-tert-butyl-isoxazol-5-yl)-amide]	15.4 nM	–
CC(C)(C)c1cc(NC(=O)[C@@H]2CCCN2c2ccc(C(F)(F)F)cn2)on1 [(S)-1-(5-Trifluoromethyl-pyridin-2-yl)-pyrrolidine-2-carboxylic acid (3-tert-butyl-isoxazol-5-yl)-amide]	0.023 nM	–
CC(C)(C)c1csc(NC(=O)[C@@H]2CCCN2c2ccc(C(F)(F)F)cn2)n1 [(S)-1-(5-Trifluoromethyl-pyridin-2-yl)-pyrrolidine-2-carboxylic acid (4-tert-butyl-thiazol-2-yl)-amide]	8.56 nM	–
CC(C)(C)c1cc(NC(=O)[C@@H]2CCC(=O)N2c2ccc(C(F)(F)F)c(F)n2)on1 [(S)-1-(6-Fluoro-5-trifluoromethyl-pyridin-2-yl)-5-oxo-pyrrolidine-2-carboxylic acid (3-tert-butyl-isoxazol-5-yl)-amide]	8.05 nM	–
CCCS(=O)(=O)N1CCC[C@H]1C(=O)Nc1cc(C(C)(C)C)on1 [(S)-1-(Propane-1-sulfonyl)-pyrrolidine-2-carboxylic acid (5-tert-butyl-isoxazol-3-yl)-amide]	120 nM	–
CC(C)(C)c1cc(NC(=O)[C@@H]2CCCN2CC2CCOC2)on1 (stereo partly drawn) [(S)-1-(Tetrahydro-furan-3-ylmethyl)-pyrrolidine-2-carboxylic acid (3-tert-butyl-isoxazol-5-yl)-amide]	0.116 nM	–
CC(C)(C)c1cc(NC(=O)[C@@H]2CCCN2CC2CCCOC2)on1 (stereo partly drawn) [(S)-1-(Tetrahydro-pyran-3-ylmethyl)-pyrrolidine-2-carboxylic acid (3-tert-butyl-isoxazol-5-yl)-amide]	0.376 nM	–
CC(C)(C)c1csc(NC(=O)[C@@H]2CCCN2C2CCOCC2)n1 [(S)-1-(Tetrahydro-pyran-4-yl)-pyrrolidine-2-carboxylic acid (4-tert-butyl-thiazol-2-yl)-amide]	279 nM	–
O=C(Nc1nc2cc(Cl)c(Cl)cc2[nH]1)[C@@H]1CCCN1C1CCOCC1 [(S)-1-(Tetrahydro-pyran-4-yl)-pyrrolidine-2-carboxylic acid (5,6-dichloro-1H-benzimidazol-2-yl)-amide]	165 nM	–
O=C(Nc1nc2cc(F)ccc2[nH]1)[C@@H]1CCCN1C1CCOCC1 [(S)-1-(Tetrahydro-pyran-4-yl)-pyrrolidine-2-carboxylic acid (5-fluoro-1H-benzimidazol-2-yl)-amide]	–	391 nM
CC(C)(C)Cc1cc(NC(=O)[C@@H]2CCCN2C2CCOCC2)on1 [(S)-1-(Tetrahydro-pyran-4-yl)-pyrrolidine-2-carboxylic acid [3-(2,2-dimethyl-propyl)-isoxazol-5-yl]-amide]	14.9 nM	–
O=C(Nc1nc(-c2ccccc2)ns1)[C@@H]1CCCN1CC1CCOCC1 [(S)-1-(Tetrahydro-pyran-4-ylmethyl)-pyrrolidine-2-carboxylic acid (3-phenyl-1,2,4-thiadiazol-5-yl)-amide]	40 nM	–
CC(C)(C)c1cc(NC(=O)[C@@H]2CCCN2CC2CCOCC2)on1 [(S)-1-(Tetrahydro-pyran-4-ylmethyl)-pyrrolidine-2-carboxylic acid (3-tert-butyl-isoxazol-5-yl)-amide]	0.438 nM	–
CC(C)(C)c1csc(NC(=O)[C@@H]2CCCN2CC2CCOCC2)n1 [(S)-1-(Tetrahydro-pyran-4-ylmethyl)-pyrrolidine-2-carboxylic acid (4-tert-butyl-thiazol-2-yl)-amide]	17.6 nM	–
O=C(Nc1nc2cc(Cl)c(Cl)cc2[nH]1)[C@@H]1CCCN1CC1CCOCC1 [(S)-1-(Tetrahydro-pyran-4-ylmethyl)-pyrrolidine-2-carboxylic acid (5,6-dichloro-1H-benzimidazol-2-yl)-amide]	56.2 nM	–
O=C(Nc1nc2cc(Cl)ccc2[nH]1)[C@@H]1CCCN1CC1CCOCC1 [(S)-1-(Tetrahydro-pyran-4-ylmethyl)-pyrrolidine-2-carboxylic acid (5-chloro-1H-benzimidazol-2-yl)-amide]	48.6 nM	–

Compound	EC50	EC50 [1]
O=C(Nc1nc2cc(Cl)ccc2s1)[C@@H]1CCCN1CC1CCOCC1 [(S)-1-(Tetrahydro-pyran-4-ylmethyl)-pyrrolidine-2-carboxylic acid (5-chloro-benzothiazol-2-yl)-amide]	–	3.14 nM
CCc1sc(NC(=O)[C@@H]2CCCN2CC2CCOCC2)nc1-c1ccccc1 [(S)-1-(Tetrahydro-pyran-4-ylmethyl)-pyrrolidine-2-carboxylic acid (5-ethyl-4-phenyl-thiazol-2-yl)-amide]	10.9 nM	–
CC(C)(C)c1nnc(NC(=O)[C@@H]2CCCN2CC2CCOCC2)s1 [(S)-1-(Tetrahydro-pyran-4-ylmethyl)-pyrrolidine-2-carboxylic acid (5-tert-butyl-1,3,4-thiadiazol-2-yl)-amide]	16.5 nM	–
O=C(Nc1ccc(C(F)(F)F)cn1)[C@@H]1CCCN1CC1CCOCC1 [(S)-1-(Tetrahydro-pyran-4-ylmethyl)-pyrrolidine-2-carboxylic acid (5-trifluoromethyl-pyridin-2-yl)-amide]	212 nM	–
O=C(Nc1nc2ccc(Cl)cc2s1)[C@@H]1CCCN1CC1CCOCC1 [(S)-1-(Tetrahydro-pyran-4-ylmethyl)-pyrrolidine-2-carboxylic acid (6-chloro-benzothiazol-2-yl)-amide]	188 nM	–
CC(C)(C)Cc1cc(NC(=O)[C@@H]2CCCN2CC2CCOCC2)on1 [(S)-1-(Tetrahydro-pyran-4-ylmethyl)-pyrrolidine-2-carboxylic acid [3-(2,2-dimethyl-propyl)-isoxazol-5-yl]-amide]	3.46 nM	–
CC(C)(CO)c1cc(NC(=O)[C@@H]2CCCN2C2CCOCC2)on1 [(S)-1-(tetrahydro-pyran-4-yl)-pyrrolidine-2-carboxylic acid [3-(2-hydroxy-1,1-dimethyl-ethyl)-isoxazol-5-yl]-amide]	50 nM	–
CC(C)(C)c1cc(NC(=O)[C@@H]2CCCN2C2CCC2)on1 [(S)-1-Cyclobutyl-pyrrolidine-2-carboxylic acid (3-tert-butyl-isoxazol-5-yl)-amide]	6.28 nM	–
CC(C)(C)c1nnc(NC(=O)[C@@H]2CCCN2C2CCC2)s1 [(S)-1-Cyclobutyl-pyrrolidine-2-carboxylic acid (5-tert-butyl-1,3,4-thiadiazol-2-yl)-amide]	255 nM	–
CC(C)(C)c1cc(NC(=O)[C@@H]2CCCN2CC2C=CCCC2)on1 (stereo partly drawn) [(S)-1-Cyclohex-2-enylmethyl-pyrrolidine-2-carboxylic acid (3-tert-butyl-isoxazol-5-yl)-amide]	0.072 nM	–
CC(C)(C)c1cc(NC(=O)[C@@H]2CCCN2C2CCCCC2)on1 [(S)-1-Cyclohexyl-pyrrolidine-2-carboxylic acid (3-tert-butyl-isoxazol-5-yl)-amide]	0.173 nM	–
CC(C)(C)c1nnc(NC(=O)[C@@H]2CCCN2C2CCCCC2)s1 [(S)-1-Cyclohexyl-pyrrolidine-2-carboxylic acid (5-tert-butyl-1,3,4-thiadiazol-2-yl)-amide]	30 nM	–
CC(C)(C)c1cc(NC(=O)[C@@H]2CCCN2CC2CCCCC2)on1 [(S)-1-Cyclohexylmethyl-pyrrolidine-2-carboxylic acid (3-tert-butyl-isoxazol-5-yl)-amide]	0.079 nM	–
CC(C)(C)c1cc(NC(=O)[C@@H]2CCCN2C2CCCC2)on1 [(S)-1-Cyclopentyl-pyrrolidine-2-carboxylic acid (3-tert-butyl-isoxazol-5-yl)-amide]	2.39 nM	–
CC(C)(C)c1nnc(NC(=O)[C@@H]2CCCN2C2CCCC2)s1 [(S)-1-Cyclopentyl-pyrrolidine-2-carboxylic acid (5-tert-butyl-1,3,4-thiadiazol-2-yl)-amide]	165 nM	–
CC(C)(C)Cc1cc(NC(=O)[C@@H]2CCCN2C2CCCC2)on1 [(S)-1-Cyclopentyl-pyrrolidine-2-carboxylic acid [3-(2,2-dimethyl-propyl)-isoxazol-5-yl]-amide]	113 nM	–
CC(C)(C)c1cc(NC(=O)[C@@H]2CCCN2C2CC2)on1 [(S)-1-Cyclopropyl-pyrrolidine-2-carboxylic acid (3-tert-butyl-isoxazol-5-yl)-amide]	3.19 nM	–
CC(C)(C)c1nnc(NC(=O)[C@@H]2CCCN2C2CC2)s1 [(S)-1-Cyclopropyl-pyrrolidine-2-carboxylic acid (5-tert-butyl-1,3,4-thiadiazol-2-yl)-amide]	–	109 nM
CC(C)(C)c1cc(NC(=O)[C@@H]2CCCN2CC2CC2)on1 [(S)-1-Cyclopropylmethyl-pyrrolidine-2-carboxylic acid (3-tert-butyl-isoxazol-5-yl)-amide]	11.4 nM	–
CC(C)(C)c1nnc(NC(=O)[C@@H]2CCCN2CC2CC2)s1 [(S)-1-Cyclopropylmethyl-pyrrolidine-2-carboxylic acid (5-tert-butyl-1,3,4-thiadiazol-2-yl)-amide]	340 nM	–
